Measurements from ChEMBL document CHEMBL1155961, “Novel 4-aryl-pyrido[1,2-c]pyrimidines with dual SSRI and 5-HT1A activity: part 2” (Eur J Med Chem, 2009).
Activity calls are given as the source filed them. The rule behind the calls is not given here.

Tests used:
[1] = molecular target: Sodium-dependent serotonin transporter (Rattus norvegicus, UniProt P31652); experiment: Displacement of [3H]citalopram from SERT in rat cerebral cortex by liquid scintillation counting; format: tissue-based
[2] = test system: Mus musculus; experiment: Effect on hypothermia in Swiss albino mouse assessed as change in rectal body temperature at 20 mg/kg, ip after 60 mins by inducible hypothermia test; format: functional, organism-based; parameters: dose 20 mg/kg
[3] = test system: Mus musculus; experiment: Effect on hypothermia in Swiss albino mouse assessed as change in rectal body temperature at 5 mg/kg, ip after 30 mins by inducible hypothermia test; format: functional, organism-based; parameters: dose 5 mg/kg
[4] = test system: Mus musculus; experiment: Effect on hypothermia in Swiss albino mouse assessed as change in rectal body temperature at 5 mg/kg, ip after 90 mins by inducible hypothermia test; format: functional, organism-based; parameters: dose 5 mg/kg
[5] = test system: Mus musculus; experiment: Effect on hypothermia in Swiss albino mouse assessed as change in rectal body temperature at 5 mg/kg, ip after 120 mins by inducible hypothermia test; format: functional, organism-based; parameters: dose 5 mg/kg
[6] = species on record: Mus musculus; conditions: Swiss albino, 20 mg/kg
[7] = test system: Mus musculus; experiment: Effect on hypothermia in Swiss albino mouse assessed as change in rectal body temperature at 10 mg/kg, ip after 30 mins by inducible hypothermia test; format: functional, organism-based; parameters: dose 10 mg/kg
[8] = test system: Mus musculus; experiment: Effect on hypothermia in Swiss albino mouse assessed as change in rectal body temperature at 20 mg/kg, ip after 120 mins by inducible hypothermia test; format: functional, organism-based; parameters: dose 20 mg/kg
[9] = test system: Mus musculus; experiment: Effect on hypothermia in Swiss albino mouse assessed as change in rectal body temperature at 20 mg/kg, ip after 30 mins by inducible hypothermia test; format: functional, organism-based; parameters: dose 20 mg/kg
[10] = test system: Mus musculus; experiment: Effect on hypothermia in Swiss albino mouse assessed as change in rectal body temperature at 10 mg/kg, ip after 120 mins by inducible hypothermia test; format: functional, organism-based; parameters: dose 10 mg/kg
[11] = molecular target: T1, 5-hydroxytryptamine receptor 1A (Rattus norvegicus, UniProt P19327); experiment: Displacement of [3H]8-OH-DPAT from 5-HT1A receptor in rat hippocampus; format: tissue-based
T1 sequence (P19327 whole entry): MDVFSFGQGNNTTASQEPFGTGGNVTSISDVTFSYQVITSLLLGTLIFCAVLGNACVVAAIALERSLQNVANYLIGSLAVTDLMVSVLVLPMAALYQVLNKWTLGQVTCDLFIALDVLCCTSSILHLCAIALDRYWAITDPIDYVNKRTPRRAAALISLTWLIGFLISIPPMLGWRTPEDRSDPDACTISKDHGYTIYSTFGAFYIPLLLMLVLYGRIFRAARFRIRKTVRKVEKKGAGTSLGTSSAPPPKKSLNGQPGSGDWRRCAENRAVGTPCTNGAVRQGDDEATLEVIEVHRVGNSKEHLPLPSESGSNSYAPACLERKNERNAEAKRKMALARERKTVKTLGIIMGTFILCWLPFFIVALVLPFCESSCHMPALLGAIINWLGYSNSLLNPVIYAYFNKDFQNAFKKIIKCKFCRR

[12] = species on record: Mus musculus; conditions: Swiss albino, 20 mg/kg; remark: listed apart in the source
[13] = test system: Mus musculus; experiment: Effect on hypothermia in Swiss albino mouse assessed as change in rectal body temperature at 10 mg/kg, ip after 90 mins by inducible hypothermia test; format: functional, organism-based; parameters: dose 10 mg/kg
[14] = species on record: Mus musculus; conditions: Swiss albino, 20 mg/kg; remark: listed apart in the source
[15] = test system: Mus musculus; experiment: Effect on hypothermia in Swiss albino mouse assessed as change in rectal body temperature at 10 mg/kg, ip after 60 mins by inducible hypothermia test; format: functional, organism-based; parameters: dose 10 mg/kg
[16] = species on record: Mus musculus; conditions: Swiss albino, 20 mg/kg; remark: listed apart in the source
[17] = test system: Mus musculus; experiment: Effect on hypothermia in Swiss albino mouse assessed as change in rectal body temperature at 5 mg/kg, ip after 60 mins by inducible hypothermia test; format: functional, organism-based; parameters: dose 5 mg/kg
[18] = test system: Mus musculus; experiment: Effect on hypothermia in Swiss albino mouse assessed as change in rectal body temperature at 20 mg/kg, ip after 90 mins by inducible hypothermia test; format: functional, organism-based; parameters: dose 20 mg/kg
[19] = species on record: Mus musculus; conditions: Swiss albino, 5 mg/kg
Description: Effect on hypothermia in Swiss albino mouse assessed as change in rectal body temperature at 5 mg/kg, ip dosed 15 mins after 0.1 mg/kg, sc WAY 100635 challenge measured after 60 mins by inducible hypothermia test

[20] = species on record: Mus musculus; conditions: Swiss albino, 2.5 mg/kg
Description: Effect on hypothermia in Swiss albino mouse assessed as change in rectal body temperature at 2.5 mg/kg, ip after 90 mins by inducible hypothermia test

[21] = species on record: Mus musculus; conditions: Swiss albino, 5 mg/kg; remark: listed apart in the source
Description: Effect on hypothermia in Swiss albino mouse assessed as change in rectal body temperature at 5 mg/kg, ip dosed 15 mins after 0.1 mg/kg, sc WAY 100635 challenge measured after 30 mins by inducible hypothermia test

[22] = species on record: Mus musculus; conditions: Swiss albino, 1.25 mg/kg
Description: Effect on hypothermia in Swiss albino mouse assessed as change in rectal body temperature at 1.25 mg/kg, ip after 30 mins by inducible hypothermia test

[23] = species on record: Mus musculus; conditions: Swiss albino, 1.25 mg/kg; remark: listed apart in the source
Description: Effect on hypothermia in Swiss albino mouse assessed as change in rectal body temperature at 1.25 mg/kg, ip after 120 mins by inducible hypothermia test

[24] = species on record: Mus musculus; conditions: Swiss albino, 1.25 mg/kg; remark: listed apart in the source
Description: Effect on hypothermia in Swiss albino mouse assessed as change in rectal body temperature at 1.25 mg/kg, ip after 90 mins by inducible hypothermia test

[25] = species on record: Mus musculus; conditions: Swiss albino, 2.5 mg/kg; remark: listed apart in the source
Description: Effect on hypothermia in Swiss albino mouse assessed as change in rectal body temperature at 2.5 mg/kg, ip after 30 mins by inducible hypothermia test

[26] = species on record: Mus musculus; conditions: Swiss albino, 2.5 mg/kg; remark: listed apart in the source
Description: Effect on hypothermia in Swiss albino mouse assessed as change in rectal body temperature at 2.5 mg/kg, ip after 120 mins by inducible hypothermia test

[27] = species on record: Mus musculus; conditions: Swiss albino, 2.5 mg/kg; remark: listed apart in the source
Description: Effect on hypothermia in Swiss albino mouse assessed as change in rectal body temperature at 2.5 mg/kg, ip after 60 mins by inducible hypothermia test

[28] = species on record: Mus musculus; conditions: Swiss albino, 1.25 mg/kg; remark: listed apart in the source
Description: Effect on hypothermia in Swiss albino mouse assessed as change in rectal body temperature at 1.25 mg/kg, ip after 60 mins by inducible hypothermia test

[29] = test system: Mus musculus; experiment: Effect on hypothermia in Swiss albino mouse assessed as change in rectal body temperature at 10 mg/kg, ip dosed 15 mins after 0.1 mg/kg, sc WAY 100635 challenge measured after 30 mins by inducible hypothermia test; format: functional, organism-based
[30] = test system: Mus musculus; experiment: Effect on hypothermia in Swiss albino mouse assessed as change in rectal body temperature at 10 mg/kg, ip dosed 15 mins after 0.1 mg/kg, sc WAY 100635 challenge measured after 60 mins by inducible hypothermia test; format: functional, organism-based
[31] = test system: Mus musculus; experiment: Effect on spontaneous locomotor activity in Swiss albino mouse assessed as number of light-beam crossings in actiometers pretreated for 30 mins at 10 mg/kg, ip measured during 6 mins post drug dose; format: functional; conditions: route intraperitoneal
[32] = test system: Mus musculus; experiment: Antidepressant activity in Swiss albino mouse assessed as reduction of immobility time at 5 mg/kg, ip administered 30 mins before test measured 6 mins test session after 2 mins habituation period by forced swimming test; format: functional, organism-based; parameters: dose 5 mg/kg
[33] = test system: Mus musculus; experiment: Antidepressant activity in Swiss albino mouse assessed as reduction of immobility time at 10 mg/kg, ip administered 30 mins before test measured 6 mins test session after 2 mins habituation period by forced swimming test; format: functional; parameters: scale not given: the % may be the effect or the level left
[34] = test system: Mus musculus; experiment: Effect on spontaneous locomotor activity in Swiss albino mouse assessed as number of light-beam crossings in actiometers pretreated for 30 mins at 10 mg/kg, ip measured during 30 mins post drug dose; format: functional; conditions: route intraperitoneal
[35] = test system: Mus musculus; experiment: Effect on hypothermia in Swiss albino mouse assessed as change in rectal body temperature at 20 mg/kg, ip dosed 15 mins after 0.1 mg/kg, sc WAY 100635 challenge measured after 30 mins by inducible hypothermia test; format: functional, organism-based
[36] = test system: Mus musculus; experiment: Antidepressant activity in Swiss albino mouse assessed as reduction of immobility time at 20 mg/kg, ip administered 30 mins before test measured 6 mins test session after 2 mins habituation period by forced swimming test; format: functional
[37] = test system: Mus musculus; experiment: Effect on hypothermia in Swiss albino mouse assessed as change in rectal body temperature at 20 mg/kg, ip dosed 15 mins after 0.1 mg/kg, sc WAY 100635 challenge measured after 60 mins by inducible hypothermia test; format: functional, organism-based

Sodium-dependent serotonin transporter, sequence (P31652 whole entry): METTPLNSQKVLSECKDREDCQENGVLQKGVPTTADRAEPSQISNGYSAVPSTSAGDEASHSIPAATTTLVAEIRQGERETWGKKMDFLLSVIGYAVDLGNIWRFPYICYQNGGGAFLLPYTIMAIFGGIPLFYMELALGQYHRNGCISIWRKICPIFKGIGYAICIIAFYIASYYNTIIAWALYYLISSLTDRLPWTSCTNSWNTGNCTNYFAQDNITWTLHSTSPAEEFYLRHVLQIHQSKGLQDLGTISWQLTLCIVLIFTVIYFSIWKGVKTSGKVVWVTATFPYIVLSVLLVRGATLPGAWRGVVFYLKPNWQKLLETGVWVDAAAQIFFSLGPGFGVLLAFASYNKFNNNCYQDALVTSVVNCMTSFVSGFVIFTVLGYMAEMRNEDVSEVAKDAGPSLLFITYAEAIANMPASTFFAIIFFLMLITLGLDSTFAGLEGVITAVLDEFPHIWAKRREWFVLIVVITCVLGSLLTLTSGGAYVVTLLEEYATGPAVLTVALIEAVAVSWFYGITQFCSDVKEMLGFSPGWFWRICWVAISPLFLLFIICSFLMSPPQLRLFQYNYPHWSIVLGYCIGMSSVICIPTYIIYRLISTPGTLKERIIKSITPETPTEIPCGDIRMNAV

SMILES: COc1ccc(-c2c3n(c(=O)n(CCCCN4CCC(c5c[nH]c6ccccc56)CC4)c2=O)CCCC3)cc1
- Ki [1]: 71.6 nM
- deltaT [2]: -0.7 °C
- deltaT [3]: -0.5 °C
- deltaT [4]: -0.2 °C
- deltaT [5]: -0.1 °C
- deltaT [6]: -0.2 °C
- deltaT [7]: -0.7 °C
- deltaT [8]: -0.3 °C
- deltaT [9]: -0.6 °C
- deltaT [10]: -0.3 °C
- Ki [11]: 20.5 nM
- deltaT [12]: -0.3 °C
- deltaT [13]: -0.4 °C
- deltaT [14]: -0.5 °C
- deltaT [15]: -0.5 °C
- deltaT [16]: 0.6 °C
- deltaT [17]: -0.2 °C
- deltaT [18]: -0.4 °C

SMILES: Cc1[nH]c2ccccc2c1C1CCN(CCCCn2c(=O)c(-c3ccc(Cl)cc3)c3n(c2=O)CCCC3)CC1
- Ki [1]: 460 nM
- Ki [11]: 1500 nM

SMILES: COc1ccc(-c2c3n(c(=O)n(CCCCN4CCC(c5c[nH]c6ccc(OC)cc56)CC4)c2=O)CCCC3)cc1
- Ki [1]: 83.5 nM
- deltaT [3]: -1.1 °C
- deltaT [4]: -0.3 °C
- deltaT [19]: -0.9 °C
- deltaT [5]: -0.1 °C
- deltaT [20]: -0.6 °C
- deltaT [21]: -1.2 °C
- Ki [11]: 10.4 nM
- deltaT [22]: -0.3 °C
- deltaT [23]: -0.2 °C
- deltaT [24]: -0.4 °C
- deltaT [25]: -0.8 °C
- deltaT [26]: -0.5 °C
- deltaT [27]: -0.6 °C
- deltaT [28]: -0.4 °C
- deltaT [17]: -0.5 °C

SMILES: Cc1[nH]c2ccccc2c1C1CCN(CCCCn2c(=O)c(-c3ccccc3F)c3n(c2=O)CCCC3)CC1
- Ki [1]: 944 nM
- Ki [11]: 2200 nM

SMILES: COc1ccccc1-c1c2n(c(=O)n(CCCCN3CCC(c4c(C)[nH]c5ccccc45)CC3)c1=O)CCCC2
- Ki [1]: 719 nM
- Ki [11]: 1600 nM

SMILES: O=c1c(-c2ccccc2F)c2n(c(=O)n1CCCCN1CCC(c3c[nH]c4ccccc34)CC1)CCCC2
- Ki [1]: 102 nM
- deltaT [3]: -0.3 °C
- deltaT [29]: -0.6 °C
- deltaT [4]: -0.2 °C
- deltaT [30]: -0.4 °C
- Activity [31]: 217
- Activity [32]: inactive
- deltaT [5]: -0.1 °C
- deltaT [7]: -1.2 °C
- Activity ([33]; route intraperitoneal): 27%
- deltaT [10]: -0.5 °C
- Ki [11]: 27.8 nM
- Activity [34]: 333
- deltaT [13]: -0.8 °C
- deltaT [15]: -1 °C
- deltaT [17]: -0.2 °C

SMILES: Cc1ccccc1-c1c2n(c(=O)n(CCCCN3CCC(c4c[nH]c5ccccc45)CC3)c1=O)CCCC2
- Ki [1]: 124 nM
- Ki [11]: 53.8 nM

SMILES: Cc1[nH]c2ccccc2c1C1CCN(CCCCn2c(=O)c(-c3ccccc3Cl)c3n(c2=O)CCCC3)CC1
- Ki [1]: 480 nM
- Ki [11]: 2100 nM

SMILES: COc1ccc2[nH]cc(C3CCN(CCCCn4c(=O)c(-c5ccccc5C)c5n(c4=O)CCCC5)CC3)c2c1
- Ki [1]: 124 nM
- Ki [11]: 51.7 nM

SMILES: COc1ccc2[nH]cc(C3CCN(CCCCn4c(=O)c(-c5ccc(C)cc5)c5n(c4=O)CCCC5)CC3)c2c1
- Ki [1]: 136 nM
- deltaT [2]: -1.3 °C
- deltaT [3]: -0.3 °C
- deltaT [4]: -0.1 °C
- deltaT [5]: -0.1 °C
- deltaT [35]: -0.4 °C
- deltaT [7]: -0.6 °C
- deltaT [8]: -0.7 °C
- Activity [33]: inactive
- Activity [36]: inactive
- deltaT [9]: -1.3 °C
- deltaT [10]: -0.1 °C
- Ki [11]: 23 nM
- deltaT [13]: -0.2 °C
- deltaT [15]: -0.4 °C
- deltaT [37]: -0.4 °C
- deltaT [17]: -0.2 °C
- deltaT [18]: -0.8 °C

SMILES: COc1ccc(-c2c3n(c(=O)n(CCCCN4CCC(c5c(C)[nH]c6ccccc56)CC4)c2=O)CCCC3)cc1
- Ki [1]: 203 nM

SMILES: Cc1ccc(-c2c3n(c(=O)n(CCCCN4CCC(c5c[nH]c6ccccc56)CC4)c2=O)CCCC3)cc1
- Ki [1]: 76.7 nM
- deltaT [3]: -0.6 °C
- deltaT [29]: -0.6 °C
- deltaT [4]: -0.3 °C
- deltaT [30]: -0.6 °C
- Activity [31]: 114
- Activity [32]: inactive
- deltaT [5]: -0.2 °C
- deltaT [7]: -1 °C
- Activity ([33]; route intraperitoneal): 34%
- deltaT [10]: -0.2 °C
- Ki [11]: 48.3 nM
- Activity [34]: 221
- deltaT [13]: -0.3 °C
- deltaT [15]: -0.5 °C
- deltaT [17]: -0.6 °C

SMILES: O=c1c(-c2ccccc2Cl)c2n(c(=O)n1CCCCN1CCC(c3c[nH]c4ccccc34)CC1)CCCC2
- Ki [1]: 101 nM
- Ki [11]: 36.2 nM

SMILES: Cc1[nH]c2ccccc2c1C1CCN(CCCCn2c(=O)c(-c3ccc(F)cc3)c3n(c2=O)CCCC3)CC1
- Ki [1]: 116 nM
- Ki [11]: 3200 nM

SMILES: Cc1ccc(-c2c3n(c(=O)n(CCCCN4CCC(c5c(C)[nH]c6ccccc56)CC4)c2=O)CCCC3)cc1
- Ki [1]: 115 nM
- Ki [11]: 1500 nM

SMILES: COc1ccc2[nH]cc(C3CCN(CCCCn4c(=O)c(-c5ccc(F)cc5)c5n(c4=O)CCCC5)CC3)c2c1
- Ki [1]: 76.1 nM
- Ki [11]: 13.9 nM

SMILES: COc1ccc2[nH]cc(C3CCN(CCCCn4c(=O)c(-c5ccc(Cl)cc5)c5n(c4=O)CCCC5)CC3)c2c1
- Ki [1]: 222 nM
- Ki [11]: 14.6 nM

SMILES: Cc1[nH]c2ccccc2c1C1CCN(CCCCn2c(=O)c(-c3ccccc3)c3n(c2=O)CCCC3)CC1
- Ki [1]: 274 nM
- Ki [11]: 1400 nM
